{
  "source": "patent US12692291B2",
  "about": "“Diamine-linked melanocortin receptor-specific cyclic peptides for ocular indications” (Boehringer Ingelheim International GmbH, priority 2020, dated 2026)",
  "key": {"[1]": {"test_system": "adult subjects with mild, moderate or severe dry eye disease", "assay": "Phase 2 placebo-controlled study in dry eye disease, Controlled Adverse Environment", "format": "in vivo, human", "from_the_text": "Peptide No. 60 was utilized in the ophthalmologic solution drug product of Example 9.3 in a multi-center, double-masked, randomized, placebo-controlled, parallel-arm, Phase 2 study, which enrolled approximately 160 subjects (80 subjects per treatment arm). The objective of this study was to compare the safety and efficacy of Peptide No. 60 to its vehicle from Day 1 (baseline) to Day 85 (Week 12) in adult subjects with mild, moderate or severe dry eye disease in a Controlled Adverse Environment (CAE) setting. Both signs and symptoms were assessed at periodic visits.\nDuring the screening period, two 90-minute exposures to the CAE were conducted to ascertain eligibility to enter the study. Subjects who qualify were randomized to receive study drug or placebo in a double-masked fashion for 12 weeks. Subjects self-administered drops three times per day (TID) and completed daily diary assessments as instructed.\nAt Visits 3 (Day 15, Week 2), 4 (Day 29, Week 4), 5 (Day 57, Week 8), and 6 (Day 85, Week 12), subjects were exposed to a CAE, with pre-CAE, during CAE (symptoms only) and post-CAE assessments of ocular signs and symptoms."}, "MC1r (HBL)": {"biological_target": "T1, MC1r (HBL) (Homo sapiens, UniProt Q01726)", "T1 construct": "B16-F10 (mouse) and HBL (human) cell lines that express native MC1 r; endogenous in cells; host or cells: HBL (human) cell line", "T1 sequence (Q01726 whole entry)": "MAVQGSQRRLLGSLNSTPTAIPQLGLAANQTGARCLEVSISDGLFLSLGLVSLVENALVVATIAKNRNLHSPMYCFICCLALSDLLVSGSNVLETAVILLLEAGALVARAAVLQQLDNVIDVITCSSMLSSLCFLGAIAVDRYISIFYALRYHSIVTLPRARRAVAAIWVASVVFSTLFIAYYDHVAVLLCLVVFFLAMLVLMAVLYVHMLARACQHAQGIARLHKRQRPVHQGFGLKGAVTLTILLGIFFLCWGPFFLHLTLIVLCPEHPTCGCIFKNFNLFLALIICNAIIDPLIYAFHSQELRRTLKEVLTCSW", "assay": "cAMP agonist functional assay, native MC1r in HBL cells", "format": "cell-based", "experimental": "(§1) Accumulation of intracellular cAMP was examined as a measure of the ability of the peptides to elicit a functional response in either HEK-293 cells that express recombinant MC3r or MC4r or B16-F10 (mouse) and HBL (human) cell lines that express native MC1 r. Confluent cells were detached from culture plates by incubation in enzyme-free cell dissociation buffer. Dispersed cells were suspended in Hank's Balanced Salt Solution containing 10 mM HEPES (pH 7.5), 1 mM MgCl2, 1 mM glutamine, 0.5% albumin and 0.3 mM 3-isobutyl-1-methyl-xanthine (IBMX), a phosphodiesterase inhibitor. The cells were dispensed into 96-well plates at a density of 0.5×10^5 cells per well and pre-incubated for 10 minutes. Cells were exposed for 15 minutes at 37° C. to peptides dissolved in DMSO (final DMSO concentration of 1%) at a concentration range of 0.05-5000 nM in a total assay volume of 200 μL. […] Data analysis was performed by nonlinear regression analysis with Graph-Pad Prism® software."}, "MC4r": {"biological_target": "T2, MC4r (Homo sapiens, UniProt P32245)", "T2 construct": "expressed in transfected cells; host or cells: HEK-293", "T2 sequence (P32245 whole entry)": "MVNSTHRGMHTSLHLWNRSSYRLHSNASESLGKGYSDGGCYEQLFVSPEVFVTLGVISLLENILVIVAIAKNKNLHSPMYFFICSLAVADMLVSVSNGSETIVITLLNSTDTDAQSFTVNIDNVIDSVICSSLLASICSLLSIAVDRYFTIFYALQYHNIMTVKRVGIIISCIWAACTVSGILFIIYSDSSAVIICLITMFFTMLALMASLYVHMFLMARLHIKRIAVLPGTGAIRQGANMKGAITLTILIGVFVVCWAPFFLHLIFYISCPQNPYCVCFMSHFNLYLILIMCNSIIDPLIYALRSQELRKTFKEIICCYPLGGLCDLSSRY", "assay": "cAMP agonist functional assay, recombinant MC4r in HEK-293 cells", "format": "cell-based", "experimental": "as §1"}, "MC1r (B16/F10)": {"biological_target": "T3, MC1r (B16/F10) (Mus musculus, UniProt Q01727)", "T3 construct": "B16-F10 (mouse) and HBL (human) cell lines that express native MC1 r; endogenous in cells; host or cells: B16-F10 (mouse) cell line", "T3 sequence (Q01727 whole entry)": "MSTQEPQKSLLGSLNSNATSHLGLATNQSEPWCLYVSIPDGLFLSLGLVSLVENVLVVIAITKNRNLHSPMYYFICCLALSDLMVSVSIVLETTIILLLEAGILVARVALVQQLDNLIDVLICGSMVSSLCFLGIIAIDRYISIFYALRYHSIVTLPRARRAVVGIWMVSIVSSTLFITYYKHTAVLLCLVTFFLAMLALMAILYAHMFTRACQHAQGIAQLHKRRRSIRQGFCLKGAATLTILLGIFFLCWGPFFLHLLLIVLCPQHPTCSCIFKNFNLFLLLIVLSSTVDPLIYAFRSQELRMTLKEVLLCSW", "assay": "cAMP agonist functional assay, native MC1r in B16-F10 cells", "format": "cell-based", "experimental": "as §1"}, "MC5r [2]": {"biological_target": "T4, MC5r (Homo sapiens, UniProt P33032)", "assay": "CEREP agonist assay, cAMP production by HTRF, MC5 in CHO-K1 cells", "format": "cell-based", "experimental": "Evaluation of the agonist activity of compounds at the melanocortin receptors was determined by measuring their effects on cAMP production using the HTRF detection method at CEREP (Eurofins CEREP SA, Celle-Levescault, France). The cells were suspended in HBSS buffer (Invitrogen) complemented with 20 mM HEPES (pH 7.4) and 500 μM IBMX, then distributed in microplates and incubated in the presence of HBSS (basal control), the test compound or the reference agonist. Incubation time, temperature, cell number, reference agonist and cell line information are included in the Table 1 below. For stimulated control measurement, separate assay wells contain reference compound. Following incubation, the cells are lysed and the fluorescence acceptor (D2-labeled cAMP) and fluorescence donor (anti-cAMP antibody labeled with europium cryptate) were added. After 60 minutes at room temperature, the fluorescence transfer was measured at excitation wavelength 337 nm and emission wavelengths 620 and 665 nm using a microplate reader (Envision, Perkin Elmer). The cAMP concentration was determined by dividing the signal measured at 665 nm by that measured at 620 nm (ratio).\nThe results are expressed as a percent of the control response to 1 μM of the reference. The standard reference agonist is tested in each experiment at several concentrations to generate a concentration-response curve from which its EC50 value is calculated."}, "MC5r [3]": {"biological_target": "T4, MC5r", "assay": "cAMP agonist functional assay at MC5r (not CEREP)", "format": "cell-based"}, "male C57BL/6JRj mice": {"test_system": "male C57BL/6JRj mice", "assay": "Chronic dry-eye disease mouse model (desiccating environment plus scopolamine), corneal fluorescein staining", "format": "in vivo", "conditions": "for corneal fluorescein staining compared with untreated eyes: Day 24, after 12 days topical treatment", "experimental": "To determine efficacy of peptide No. 60 for moderate, chronic dry-eye disease, male C57BL/6JRj mice were exposed to a controlled desiccating environment with transdermal administration of scopolamine (SiccaSystem™) to establish disease prior to any treatment. Corneal fluorescein staining was performed on study Days 10 and 12 (prior to treatment) and Day 24 (after 12 days of topical treatment with test compounds). Animals were randomized into 6 different experimental groups (n=12 for each treatment group, n=7 for untreated eyes) based on the fluorescein score on Day 12. Treatment arms included untreated and vehicle-treated animals and animals receiving Peptide No. 60 (3 different concentrations, 10^−2, 10^−3, and 10^−4 mg/mL) or the reference compound cyclosporin ophthalmic emulsion, sold under the trade name Restasis®."}, "[4]": {"assay": "Ocular tissue distribution after dosing to the eye, mouse model", "format": "in vivo", "conditions": "at both 4 and 24 hours after dosing to the eye", "experimental": "Peptide No. 60 was evaluated in several stability and pharmacokinetic models."}, "MC3r": {"biological_target": "T5, MC3r (Homo sapiens, UniProt P41968)", "T5 construct": "expressed in transfected cells; host or cells: HEK-293", "T5 sequence (P41968 whole entry, species assumed)": "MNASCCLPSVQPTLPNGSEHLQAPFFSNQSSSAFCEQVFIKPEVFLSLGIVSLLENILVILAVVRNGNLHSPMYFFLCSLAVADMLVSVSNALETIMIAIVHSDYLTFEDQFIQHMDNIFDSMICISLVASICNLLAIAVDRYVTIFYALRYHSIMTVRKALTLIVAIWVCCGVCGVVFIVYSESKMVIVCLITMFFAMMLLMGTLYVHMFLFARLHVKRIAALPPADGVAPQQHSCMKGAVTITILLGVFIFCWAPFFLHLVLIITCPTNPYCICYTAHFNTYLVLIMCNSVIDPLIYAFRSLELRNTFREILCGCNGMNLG", "assay": "cAMP agonist functional assay, recombinant MC3r in HEK-293 cells", "format": "cell-based", "experimental": "as §1"}},
  "note": "*1 amine or outer side, *2 acyl side, *3 side chain or, on linkers, in order; H or OH if unused. Where a SMILES comes first, the peptide text is derived from it. Bridges are numbered along the chain shown (N, C = ends). [ ]: non-standard residue; d: D form. dPhe(4-F) = N[C@H](Cc1ccc(F)cc1)C(=O)O; NH(CH2)4NH = C(CCN[*:2])CN[*:1]; Nle = CCCC[C@H](N)C(=O)O",
  "data": [
    {"smiles": "CCCC[C@H](NC(C)=O)C(=O)N[C@H]1CCC(=O)NCCCCNC(=O)[C@H](Cc2c[nH]c3ccccc23)NC(=O)[C@H](CCCNC(=N)N)NC(=O)[C@@H](Cc2ccc(F)cc2)NC(=O)[C@H](Cc2c[nH]cn2)NC1=O", "note": "[Peptide No. 60, Ac-Nle-cyclo(Glu-His-D-Phe(4-F)-Arg-Trp-NH—(CH2)4—NH)] (Ac-[Nle]EH[dPhe(4-F)]RW; linker 2-C via NH(CH2)4NH)", "values": [
      {"measurement": "ocular, drug-related adverse events", "setting": "[1]; Phase 2 study", "result": "no ocular, drug-related adverse events"},
      {"measurement": "serious adverse events associated with study treatment", "setting": "[1]; Phase 2 study", "result": "no serious adverse events associated with study treatment observed"},
      {"measurement": "patients discontinued from the study", "setting": "[1]; not deemed to be drug related", "result": "one"},
      {"measurement": "EC50", "setting": "MC1r (HBL); MC1r (HBL)", "result": 0.13, "unit": "nM"},
      {"measurement": "Fold Peptide No. 60 More Potent Than Bremelanotide", "setting": "MC1r (HBL); MC1r (HBL)", "result": 0.78, "unit": "X"},
      {"measurement": "Fold Peptide No. 60 More Potent Than α-MSH", "setting": "MC1r (HBL); MC1r (HBL)", "result": 69, "unit": "X"},
      {"measurement": "potency compared to bremelanotide (in words)", "setting": "MC1r (HBL); at MC1r", "result": "approximately equal potency"},
      {"measurement": "potency compared to α-MSH (in words)", "setting": "MC1r (HBL); at MC1r", "result": "greater relative potency"},
      {"measurement": "EC50", "setting": "MC4r; MC4r", "result": 2, "unit": "nM"},
      {"measurement": "Fold Peptide No. 60 More Potent Than Bremelanotide", "setting": "MC4r; MC4r", "result": 0.5, "unit": "X"},
      {"measurement": "Fold Peptide No. 60 More Potent Than α-MSH", "setting": "MC4r; MC4r", "result": 1.5, "unit": "X"},
      {"measurement": "potency compared to α-MSH (in words)", "setting": "MC4r; at MC4r", "result": "roughly comparable"},
      {"measurement": "EC50", "setting": "MC1r (B16/F10)", "result": 0.02, "unit": "nM"},
      {"measurement": "Fold Peptide No. 60 More Potent Than Bremelanotide", "setting": "MC1r (B16/F10)", "result": 5, "unit": "X"},
      {"measurement": "Fold Peptide No. 60 More Potent Than α-MSH", "setting": "MC1r (B16/F10)", "result": 11, "unit": "X"},
      {"measurement": "EC50", "setting": "MC5r [2]", "result": 0.39, "unit": "nM"},
      {"measurement": "Fold Peptide No. 60 More Potent Than Bremelanotide", "setting": "MC5r [2]", "result": ">25,000X (CEREP)"},
      {"measurement": "Fold Peptide No. 60 More Potent Than α-MSH", "setting": "MC5r [2]", "result": "930X (CEREP)"},
      {"measurement": "EC50", "setting": "MC5r [3]; MC5r", "result": 0.15, "unit": "nM"},
      {"measurement": "Fold Peptide No. 60 More Potent Than Bremelanotide", "setting": "MC5r [3]; MC5r", "result": "22,500X"},
      {"measurement": "Fold Peptide No. 60 More Potent Than α-MSH", "setting": "MC5r [3]; MC5r", "result": 686, "unit": "X"},
      {"measurement": "potency compared to α-MSH (in words)", "setting": "MC5r [3]; at MC5r", "result": "greater relative potency"},
      {"measurement": "corneal fluorescein staining compared with untreated eyes", "setting": "male C57BL/6JRj mice; 10^−2 mg/ml, P<0.05, Dunn's multiple comparisons test", "result": "statistically significant lower corneal fluorescein staining"},
      {"measurement": "corneal fluorescein staining compared with untreated eyes", "setting": "male C57BL/6JRj mice; 10^−3 mg/ml, P<0.01, Dunn's multiple comparisons test", "result": "statistically significant lower corneal fluorescein staining"},
      {"measurement": "corneal fluorescein staining compared with untreated eyes", "setting": "male C57BL/6JRj mice; 10^−4 mg/ml, P<0.01, Dunn's multiple comparisons test", "result": "statistically significant lower corneal fluorescein staining"},
      {"measurement": "corneal fluorescein staining/scores, Day 12 compared with Day 24 for the same eye", "setting": "male C57BL/6JRj mice; doses between 10^−2 and 10^−4 mg/mL, topical", "result": "statistically significantly improvement of corneal fluorescein scores"},
      {"measurement": "presence in ocular tissues", "setting": "[4]", "result": "found in both the conjunctiva and lacrimal gland"},
      {"measurement": "EC50", "setting": "MC3r; MC3r", "result": 0.77, "unit": "nM"},
      {"measurement": "Fold Peptide No. 60 More Potent Than Bremelanotide", "setting": "MC3r; MC3r", "result": 4, "unit": "X"},
      {"measurement": "Fold Peptide No. 60 More Potent Than α-MSH", "setting": "MC3r; MC3r", "result": 3.9, "unit": "X"},
      {"measurement": "potency compared to α-MSH (in words)", "setting": "MC3r; at MC3r", "result": "roughly comparable"}
    ]}
  ]
}
